Reference: patent US10376520B2, “Methods for the treatment of cardiovascular disorders” (Galapagos NV, priority 2015, dated 2019)

System: Japanese and Caucasian healthy subjects
Assay: LDL determination, Study 3 (healthy volunteers)
Assay type: in vivo, human
Details: for [LDL] % Mean % variation vs baseline 10 days: 200 mg q.d.; for [LDL] levels: Study 3
Experimental: Randomized, double-blind, placebo-controlled study for the assessment of safety, tolerability, pharmacokinetics, and pharmacodynamics, of multiple oral doses of Compound 1 (dosed as a [Compound 1:HCl:3H2O]) in Japanese and Caucasian healthy subjects.
Randomized, double-blind, placebo-controlled, single center, sequential design study.
Compound 1 (dosed as a [Compound 1:HCl:3H2O]) is administered for 10 days as oral film-coated tablet (25 and 100 mg and matching placebos). Placebo are provided as a matching tablet.
The study drug is ingested with 240 mL water after a standardized breakfast on Days 2-9. On PK days (Day 1 and Day 10) the study drug is administered in a fasted state (subjects will receive lunch 4 h after dosing on Day 1 and Day 10).
10 Japanese subjects (6 active, 4 placebo) and 10 Caucasian subjects (6 active, 4 placebo) will receive once daily an oral dose of 200 mg Compound 1 (dosed as a [Compound 1:HCl:3H2O]) or matching placebo as two tablets of 100 mg or matching placebo for 10 days. For practical reasons, these subjects may be split over separate groups, each group consisting of an equal number of Japanese and Caucasian Compound 1 (dosed as a [Compound 1:HCl:3H2O]) treated subjects and Japanese and Caucasian placebo subjects.
The determination of [LDL]-cholesterol is made using an automated method taking advantage of the selective micellary solubilization of [LDL]-cholesterol by a nonionic detergent and the interaction of a sugar compound and lipoproteins (VLDL and chylomicrons).
When a detergent is included in the enzymatic method for cholesterol determination (cholesterol esterase, cholesterol oxidase coupling reaction), the relative reactivities of cholesterol in the lipoprotein fractions increase in this order: [HDL]<chylomicrons <VLDL <[LDL]. In the presence of Mg^2+, a sugar compound markedly reduces the enzymatic reaction of the cholesterol measurement in VLDL and chylomicrons. The combination of a sugar compound with detergent enables the selective determination of [LDL]-cholesterol in serum. (Friedewald et al., 1972; Rifai et al., 1992)
Homogeneous enzymatic colorimetric assay.
In the presence of peroxidase, the hydrogen peroxide generated reacts with 4-aminoantipyrine and Sodium N-(2-hydroxy-3-sulfopropyl)-3,5-dimethoxyaniline (HSDA) to form a purple-blue dye.
The color intensity of this dye is directly proportional to the cholesterol concentration and is measured photometrically.
Human serum and plasma samples [LDL] determination was done on a Roche/Hitachi Cobas c 701/702 system which automatically calculate the analyte concentration of each sample. Samples containing precipitates are centrifuged before performing the assay.

O=C(Nc1nc2cccc(-c3ccc(CN4CCS(=O)(=O)CC4)cc3)n2n1)C1CC1 [Compound 1, cyclopropanecarboxylic acid {5-[4-(1,1-dioxo-thiomorpholin-4-ylmethyl)-phenyl]-[1,2,4]triazolo[1,5-a]pyridin-2yl}-amide]
[LDL] % Mean % variation vs baseline 10 days (Caucasian): −1.3%
[LDL] % Mean % variation vs baseline 10 days (Japanese): −8.9%
[LDL] levels (Caucasian 200 mg q.d. for 10 days, day 17): 2.5 mmol/L
[LDL] levels (Caucasian 200 mg q.d., day 0): 2.6 mmol/L
[LDL] levels (Caucasian 200 mg q.d., day 5): 2.6 mmol/L
[LDL] levels (Caucasian 200 mg q.d., day 10): 2.4 mmol/L
[LDL] levels (Japanese 200 mg q.d. for 10 days, day 17): 2.7 mmol/L
[LDL] levels (Japanese 200 mg q.d., day 0): 2.7 mmol/L
[LDL] levels (Japanese 200 mg q.d., day 5): 2.5 mmol/L
[LDL] levels (Japanese 200 mg q.d., day 10): 2.5 mmol/L
